According to ChEMBL document CHEMBL1201862, “PubChem BioAssay data set” (2004):
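Exposure lasted 48 hours, with cells grown in 96-well plates and compounds tested at five concentrations. GI50 marks 50% less growth.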 The source made the active and inactive calls. Cut-off read from the data, not from the text of the source: active = GI50 up to about 1.1 µM and inactive = higher.

Columns and labels:
Experiment in all cases: DTP human tumour cell line panel, 48 h
KM12 = tested on: KM12
SK-OV-3 = tested on: SK-OV-3
SNB-75 = tested on: SNB-75
SW-620 = tested on: SW-620
LXFL 529 = tested on: LXFL 529
DLD-1 = tested on: DLD-1
HCC 2998 = tested on: HCC 2998
A498 = tested on: A498
TK-10 = tested on: TK-10
XF498 = tested on: XF498
SK-MEL-28 = tested on: SK-MEL-28
OVCAR-3 = tested on: OVCAR-3
M19-MEL = tested on: M19-MEL
KM-20L2 = tested on: KM-20L2
HOP-92 = tested on: HOP-92
DMS-273 = tested on: DMS-273
HL-60 = tested on: HL-60
SK-MEL-2 = tested on: SK-MEL-2
LOX IMVI = tested on: LOX IMVI
NCI/ADR-RES = tested on: NCI/ADR-RES

| Structure (SMILES) | GI50 (KM12) | GI50 (SK-OV-3) | GI50 (SNB-75) | GI50 (SW-620) | GI50 (LXFL 529) | GI50 (DLD-1) | GI50 (HCC 2998) | GI50 (A498) | GI50 (TK-10) | GI50 (XF498) | GI50 (SK-MEL-28) | GI50 (OVCAR-3) | GI50 (M19-MEL) | GI50 (KM-20L2) | GI50 (HOP-92) | GI50 (DMS-273) | GI50 (HL-60) | GI50 (SK-MEL-2) | GI50 (LOX IMVI) | GI50 (NCI/ADR-RES) |
| --- | --- | --- | --- | --- | --- | --- | --- | --- | --- | --- | --- | --- | --- | --- | --- | --- | --- | --- | --- | --- |
| COc1ccc(/C=C/C(=O)C(C)(C)C)cc1OC | 43.9 µM (inactive) | 76.2 µM (inactive) | 34.4 µM (inactive) | 79.4 µM (inactive) | 43.6 µM (inactive) | 65.9 µM (inactive) | > 100 µM (inactive) | > 100 µM (inactive) | > 100 µM (inactive) | 66.8 µM (inactive) | 74.6 µM (inactive) | 64.7 µM (inactive) | > 100 µM (inactive) | 41.8 µM (inactive) |  |  |  |  |  |  |
| Cc1ccc(/N=N/C(C2=NC(=O)CS2)c2nc3ccccc3[nH]2)cc1 (stereo not given) | > 100 µM (inactive) | > 100 µM (inactive) | 59.2 µM (inactive) | > 100 µM (inactive) | > 100 µM (inactive) | > 100 µM (inactive) |  | > 100 µM (inactive) | > 100 µM (inactive) | > 100 µM (inactive) | > 100 µM (inactive) | > 100 µM (inactive) | > 100 µM (inactive) | > 100 µM (inactive) | > 100 µM (inactive) | > 100 µM (inactive) | > 100 µM (inactive) |  |  |  |
| CN1CCC(C(=O)NNc2ccccc2)CC1 | 3.15 µM (inactive) | > 100 µM (inactive) | > 80.2 µM (inactive) | 7.98 µM (inactive) | 0.9 µM (active) | 12.8 µM (inactive) | 5.22 µM (inactive) | > 100 µM (inactive) | 18.3 µM (inactive) | > 100 µM (inactive) | 17.1 µM (inactive) | 16.9 µM (inactive) | 13.9 µM (inactive) | 1.69 µM (inactive) | > 100 µM (inactive) | 3.1 µM (inactive) | 2.65 µM (inactive) | 9.02 µM (inactive) | 0.923 µM (active) |  |
| CCCCCCNC(=O)C(C)C1CCC2(C)C=CC(=O)C(C)=C2C1O (stereo not given) | > 88.1 µM (inactive) | > 100 µM (inactive) | > 100 µM (inactive) | > 100 µM (inactive) |  | > 100 µM (inactive) | > 100 µM (inactive) | > 100 µM (inactive) |  | > 100 µM (inactive) | > 100 µM (inactive) | > 100 µM (inactive) |  | > 100 µM (inactive) | 45.2 µM (inactive) | > 100 µM (inactive) | > 64.4 µM (inactive) | > 100 µM (inactive) | > 100 µM (inactive) | > 100 µM (inactive) |
| Cc1coc2c1C[C@@]1(C)[C@H](CCC[C@@H]1C)[C@H]2O | > 100 µM (inactive) | > 100 µM (inactive) |  | 37.7 µM (inactive) |  |  | 11.4 µM (inactive) |  | 54 µM (inactive) |  | 29.5 µM (inactive) | 22.6 µM (inactive) |  |  | 25.9 µM (inactive) |  | 16.4 µM (inactive) |  | 56.4 µM (inactive) | 24.3 µM (inactive) |
| Cc1ccc2c(O)cc(-c3ccc(F)cc3)nc2n1 | 22.4 µM (inactive) | 40.2 µM (inactive) | 14.1 µM (inactive) | 28.6 µM (inactive) |  |  | 44 µM (inactive) | 25.1 µM (inactive) | 46.6 µM (inactive) |  | 49 µM (inactive) |  |  |  | 19.7 µM (inactive) |  | 14.1 µM (inactive) | 45.7 µM (inactive) | 30.1 µM (inactive) | 25.7 µM (inactive) |
